Values joined by “and” are separate entries in the source; they are usually repeats but may differ in a detail not shown here. Equal values may be shown once. Active and inactive are the calls of the source.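 Rule for the calls: active = curve reaches 40% activation over neutral controls at an AC40 no higher than the top valid tested concentration; inconclusive = no clear call, values can overlap the other calls; inactive = signal moving opposite to the expected increase, and the rest.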 A value given as a limit tells only on which side of the number the result lay.

For the test, the system named is INS-1E GLuc insulin secretion reporter, luminescence, 2-3 h. Put plainly: activators of glucose-dependent insulin secretion, dose response, cell-based, INS-1E, Gaussia luciferase, luminescence, cherry-pick, set 2 (AID 977607).
As to `CC1(C(=O)NS(=O)(=O)c2ccc(Cl)s2)CCN1C(=O)C1(c2ccccc2)CCCC1` (stereo not drawn), the AC40 is 10.7 µM.

Turning to `O=C(Nc1ccc(Cl)c(Cl)c1)Nc1nc(-c2ccccc2)cs1`, the AC40 was 4.71 µM.

For `Cc1cc(NC(=O)c2cc(-c3cccc(Cl)c3)on2)no1`, the AC40 was 5.68 µM.

Take `CCCCc1c(-c2cccc(OC)c2)ncn1CCc1ccccc1OC`: the AC40 was 11.8 µM.

As to `CCCCc1c(-c2ccccc2OC)ncn1Cc1ccccc1C`, the AC40 was 10.4 µM.

On to `COc1ccc(CCNS(=O)(=O)c2cn(C)cn2)cc1OC`, for which the AC40 was 4.84 µM.

`COc1ccc(NC(=O)Cn2cnc3c(cnn3-c3ccc(C)c(C)c3)c2=O)c(OC)c1`: the AC40 is 5.6 µM.

Regarding `O=C(CCN1CCOCC1)c1ccccc1`, the AC40 is 7.71 µM.

As to `CC(NC(=O)COC(=O)c1ccccc1Nc1ccccc1)c1ccccc1` (stereo not drawn), the AC40 is 12.2 µM.

Turning to `CC(C)C[C@H](NC(=O)c1[nH]cnc1C(=O)N[C@@H](C)c1ccccc1)C(=O)OC(C)(C)C`, the AC40 was 31.3 µM.

Turning to `CC(=O)Nc1cc(-c2cccc(C(=O)NCCN(C)C)c2)cn2c(-c3cccc(C(F)(F)F)c3)cnc12`, the AC40 is 14.7 µM.

For the compound `COc1ccc(/C=N/NC(=O)CCOc2ccccc2C)cc1OC`, the AC40 is 7.01 µM.

`COC(=O)C1=C(C)N(Cc2cccc(C(F)(F)F)c2)C(=NCc2ccc3c(c2)OCO3)NC1CCc1ccccc1` (stereo not drawn): the AC40 was 13.1 µM.

As for `Cc1ccc(-c2ccc(C3[C@@H]4CN(C(=O)Nc5ccc(C(F)(F)F)cc5)C[C@H]3N4)cc2)cc1` (stereo partly drawn), the AC40 was 4.06 µM and 2.82 µM.

Consider `COc1cc(C(=O)Nc2ccn(C)n2)ccc1OC(F)F`, for which the AC40 was > 35 µM (inactive).

Take `CC(C)CSc1nc2c(c(=O)[nH]c(=O)n2C)n1CCc1ccccc1`: the AC40 was 8.81 µM.

As to `COc1ccc(Cc2nnc(NC(=O)Cc3cccs3)s2)cc1OC`, the AC40 was 0.234 µM.

In the case of `N#Cc1cccc(-c2ccc(C3[C@H]4CNC[C@@H]3N4Cc3cc(-c4ccccc4)on3)cc2)c1` (stereo partly drawn), the AC40 was 12 µM.

Turning to `COc1ccccc1NC(=O)N1CCCCN2[C@@H](CO)[C@@H](c3ccc(C#CC4CCCC4)cc3)[C@@H]2C1`, the AC40 is 16.5 µM.

On to `Cc1nc2c(=O)n(C)c(=O)n(C)c2nc1Cl`, for which the AC40 was 25.8 µM.

Consider `CN(C)Cc1ccccc1Sc1ccc2c(c1)CCCC2`, for which the AC40 is 16.6 µM.

`Cc1ccc(S(=O)(=O)N2C[C@@H]3N[C@H](C2)C3c2ccc(/C=C/c3ccccc3)cc2)cc1` (stereo partly drawn): the AC40 is 7.9 µM.

Regarding `Cc1cccc(OCC(=O)Nc2ccc(NC(=O)c3ccco3)cc2)c1`, the AC40 was 17.8 µM.

Take `FC(F)(F)c1cc(CCN2CCNC[C@@H]2Cc2ccccc2)cc(C(F)(F)F)c1`: the AC40 was 17.8 µM.

In the case of `COC(=O)C1=C(C)N(Cc2cccc(C(F)(F)F)c2)C(=NCc2ccc(OC)cc2)NC1c1cccc(Cl)c1` (stereo not drawn), the AC40 is 9.96 µM.

Consider `COc1cc2c(cc1OC)-c1cc(Nc3ccc(C)cc3)nc(=O)n1CC2`, for which the AC40 was 11.8 µM.

With `C=CCN(Cc1ccc(OC)c(OC)c1)C(=O)N1CCOCC1`, the AC40 is > 35 µM (inactive).

`O=C(Nc1nc2ccccc2n1Cc1ccc(Cl)cc1)c1ccco1`: the AC40 was 7.18 µM.

As for `CCOC(=O)[C@]12Cc3cc(OC)ccc3[C@H]1N(C1CCCCC1)C(=O)c1cc(OC)ccc12`, the AC40 was 12 µM.

Take `CCOc1cc(N2CCOCC2)c(OCC)cc1NC(=O)COC(=O)c1cc2ccccc2cc1O`: the AC40 is 10.3 µM.

Consider `CCOc1ccc(/C=N/NC(=O)c2cc(-c3ccco3)nc3ccccc23)cc1`, for which the AC40 was 8.25 µM.

As for `COc1ccc(-c2ccc(-c3noc(-c4ccco4)n3)c(OC)n2)cc1`, the AC40 is 7.71 µM.

As for `CC(=O)c1nn(-c2ccc(Br)cc2)cc1C(=O)c1ccccc1`, the AC40 is 8.45 µM.

For `O=C(Cn1c(COc2ccccc2)nc2ccccc21)Nc1cc(Cl)cc(Cl)c1`, the AC40 is 10.9 µM.

In the case of `COc1ccc(-c2nc(-c3cccnc3)no2)cc1OC`, the AC40 was > 35 µM (inactive).

Consider `CCOc1cc(/C=N/NC(=O)CCn2nc(C)cc2C)ccc1O`, for which the AC40 was 8.04 µM.

In the case of `N#Cc1c(N)n(C2CCCCC2)c2nc3ccccc3nc12`, the AC40 was 18.9 µM.

In the case of `COC(=O)c1cnn(-c2nc(-c3ccccc3)cs2)c1N`, the AC40 was > 35 µM (inactive).

Regarding `N#Cc1c(-c2cccc(Br)c2)cc(-c2cccnc2)nc1N`, the AC40 was 5.82 µM.

For `CCC1OC(C2CC2)CC2=C1C(=O)OC(C)(C)O2` (stereo not drawn), the AC40 was 4.79 µM.

Turning to `COc1ccc(CC(N)c2csc(NC(=O)Nc3ccc(C(C)C)cc3)n2)cc1` (stereo not drawn), the AC40 is 6.81 µM.

Regarding `Cc1cc(C)c2oc(C(=O)Nc3ccc(S(=O)(=O)Nc4nccc(C)n4)cc3)cc(=O)c2c1`, the AC40 is 8.73 µM.

With `C=C(C)C1Cc2c(C)nn(-c3cccc4cccnc34)c2C1` (stereo not drawn), the AC40 is 2.1 µM.

As to `Cc1ccc(OCC(=O)NC(=S)Nc2cccc(NC(=O)c3ccccc3)c2)cc1`, the AC40 is 11.3 µM.

On to `CNc1nc(Nc2ccccc2)nc(OCC(F)(F)F)n1`, for which the AC40 was 0.606 µM.

On to `Cc1ccccc1C(=O)Nc1nnc(-c2ccc(C(C)(C)C)cc2)s1`, for which the AC40 was 18.3 µM.

For the compound `C[C@@H]1CN([C@H](C)CO)S(=O)(=O)c2ccc(-c3ccc(F)cc3)cc2O[C@H]1CN(C)Cc1cccc(F)c1`, the AC40 is 15.5 µM.

For `COc1ccc(-c2ccc3c(N)c(C(=O)c4ccc(OC)c(OC)c4)sc3n2)cc1`, the AC40 is 5.83 µM.

For `Fc1cccc(CN2C[C@@H]3N[C@H](C2)C3c2ccc(/C=C/c3ccccc3)cc2)c1` (stereo partly drawn), the AC40 is 11.4 µM.

For `NC(N)=N/N=C/c1ccc(OCc2ccccc2Cl)cc1`, the AC40 is 16.4 µM.

On to `COc1ccc(NC(=O)c2csc(C)c2)cc1OC`, for which the AC40 is > 35 µM (inactive).

`Fc1ccc(-c2ccc(C3[C@@H]4CN(Cc5ccccc5)C[C@H]3N4)cc2)cc1` (stereo partly drawn): the AC40 was 6.57 µM.

Regarding `CCC(C)c1ccccc1OCCCN(C)Cc1ccccc1` (stereo not drawn), the AC40 is 7.97 µM.

Take `CC1(C(=O)NCc2cccc3ccccc23)CCN1Cc1ccc(OC(F)(F)F)cc1` (stereo not drawn): the AC40 is 14.3 µM.

Regarding `Cc1ccc(NC(=O)CNC(=O)c2sc3ccccc3c2Cl)nc1`, the AC40 is 14.3 µM.

Regarding `Fc1ccccc1-c1ccc(C2[C@@H]3CN(Cc4ccccc4)C[C@H]2N3)cc1` (stereo partly drawn), the AC40 was 7.05 µM.

For the compound `Cc1ccc(S(=O)(=O)C=CS(=O)(=O)c2ccc(C)cc2)cc1`, the AC40 is 0.224 µM.

Take `Cc1nnn(-c2nonc2N)c1C(=O)N/N=C/c1cccc2ccccc12`: the AC40 was 7.29 µM.

As for `FC(F)(F)c1cc(CCN2CCNC[C@@H]2c2ccccc2)cc(C(F)(F)F)c1`, the AC40 was 6.96 µM.

On to `CC(C)Nc1nc(Nc2ccc(C(N)=O)cc2)c2sccc2n1`, for which the AC40 was 9.89 µM.

Turning to `Cn1c(=O)oc2cc(S(=O)(=O)N3CCC(C(=O)Nc4ccc(OC(F)(F)F)cc4)CC3)ccc21`, the AC40 was 7.48 µM.

`COc1cc(CN2C[C@@H]3N[C@H](C2)C3c2ccc(/C=C/c3ccccc3)cc2)cc(OC)c1` (stereo partly drawn): the AC40 is 5.5 µM.

With `COc1cc2c(cc1OC)[C@H](C)N(C(=O)NCc1ccccc1)CC2`, the AC40 was 8 µM.

Regarding `CCn1cc(S(=O)(=O)NCCc2ccc(OC)c(OC)c2)cn1`, the AC40 was 3.87 µM.

In the case of `Oc1ccccc1C1SC(c2ccccc2O)SC(c2ccccc2O)S1` (stereo not drawn), the AC40 is 6.08 µM.

For the compound `NC1=NC[C@H](CC2CCCCC2)N1CCc1cc(C(F)(F)F)cc(C(F)(F)F)c1`, the AC40 was 16.6 µM.

Regarding `Cc1ccccc1-c1ccc(C2[C@@H]3CN(C(=O)Nc4cccc(F)c4)C[C@H]2N3)cc1` (stereo partly drawn), the AC40 was 8.64 µM.

For `N#Cc1sc2nc3c(c(-c4cccnc4)c2c1N)CCC3`, the AC40 was 26.5 µM.

For the origin of these results see PubChem BioAssay AID977607 (Broad Institute, 2014).
